Experimental data reported in publication PMC12166061, “Crystallographic fragment screening reveals ligand hotspots in TRIM21 PRY-SPRY domain” (Communications Chemistry, 2025).
Read-outs that look alike come from different tables or passages of the source.

Key:
Format in all cases: binding
[1] = molecular target: T1, murine TRIM21 PRY-SPRY domain (Mus musculus, UniProt Q62191); assay: Differential scanning fluorimetry (DSF, ΔTm), mouse TRIM21 PRY-SPRY domain
T1 construct: mouse TRIM21 PRY-SPRY domain (residues V291-M470, UniProt-ID: Q62191); made in house; host or cells: E. coli BL21(DE3)
T1 sequence (Q62191 291-470): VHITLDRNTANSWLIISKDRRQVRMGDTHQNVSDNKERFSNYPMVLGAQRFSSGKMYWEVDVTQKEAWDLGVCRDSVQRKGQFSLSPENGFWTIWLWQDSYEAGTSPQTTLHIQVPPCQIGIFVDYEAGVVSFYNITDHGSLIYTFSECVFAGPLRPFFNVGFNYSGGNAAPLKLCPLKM
Procedure: (§1) Briefly, recombinant murine and human TRIM21 PRY-SPRY domain at a concentration of 8 μM were mixed with 2 mM compound in their respective SEC buffer. SYPRO Orange (5000×, Invitrogen) was added as a fluorescence probe (1 µl per mL). Subsequently, temperature-dependent protein unfolding profiles were measured using the QuantStudio™ 5 realtime PCR machine (Thermo Fisher). Excitation and emission filters were set to 465 nm and 590 nm, respectively. The temperature was raised with a step rate of 3 °C per minute. Data points were analysed with the internal software (Thermal Shift SoftwareTM Version 1.4, Thermo Fisher) using the Boltzmann equation to determine the inflection point of the transition curve.

[2] = molecular target: T2, human TRIM21 PRY-SPRY domain (Homo sapiens, UniProt P19474); assay: Differential scanning fluorimetry (DSF, ΔTm), human TRIM21 PRY-SPRY domain
T2 construct: Human TRIM21 PRY-SPRY domain (residues V287-I465, UniProt-ID: P19474); His6 (N, cleaved yes); SUMO (N, cleaved yes); made in house; host or cells: E. coli BL21(DE3)
T2 sequence (P19474 287-465): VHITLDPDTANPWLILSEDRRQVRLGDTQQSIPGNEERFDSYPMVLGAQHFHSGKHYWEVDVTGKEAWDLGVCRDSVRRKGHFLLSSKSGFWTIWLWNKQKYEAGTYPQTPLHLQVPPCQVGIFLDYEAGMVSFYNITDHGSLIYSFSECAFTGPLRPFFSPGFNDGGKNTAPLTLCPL
Procedure: as §1

His-mTRIM21 PRYSPRY = molecular target: T3, His-mTRIM21 PRYSPRY (Mus musculus, UniProt Q62191); assay: SPR fragment screening and dose response, mouse TRIM21 PRY-SPRY
T3 construct: mouse TRIM21 PRY-SPRY domain (residues V291-M470, UniProt-ID: Q62191); made in house; host or cells: E. coli BL21(DE3)
T3 sequence (Q62191 291-470): T1 sequence (Q62191 291-470)
Procedure: (§2) His-mTRIM21 PRYSPRY and His-SUMO-hTRIM21 PRY-SPRY were immobilized onto flow channels (FC) FC2, FC3, and FC4 of a Series S sensor chip NTA (Cytiva). […] Proteins (10–20 µg mL^−1 in HBS-P+) were injected at 10 µL min^−1 to achieve response levels of 3500–4300 RU for mTRIM21 and 3600–4000 RU for hTRIM21. Flow channel 1 (FC1) was used as a reference surface. Surface deactivation and nickel stripping were achieved using 1 M ethanolamine and 350 mM ethylenediaminetetraacetic acid (EDTA), respectively.
(§3) Fragment screening was conducted by injecting 500 µM fragments diluted in running buffer (HBS-P+ with 1 mM TCEP and 2% (v/v) dimethyl sulfoxide (DMSO)) over all flow-channels for 30 s at 30 µL/min^−1. To account for surface drift, 50 µM of a control compound (Suramin) was injected every 15 fragment injections, and blank injections were performed every 5 fragments. Responses were analyzed by blank subtraction, reference subtraction (FC1), solvent correction, molecular weight adjustment, and drift correction using Biacore T200 Evaluation Software v3.2.1. The binding threshold for fragment hits was set based on the Suramin-binding response level.
The data was solvent-corrected, reference-subtracted (FC1), and blank-subtracted using the T200 Evaluation Software v3.2.1. Sensorgrams were subsequently replotted using Graphpad v.9 software.

[3] = molecular target: T4, His-SUMO-hTRIM21 PRY-SPRY (Homo sapiens, UniProt P19474); assay: SPR fragment screening, human TRIM21 PRY-SPRY
T4 construct: Human TRIM21 PRY-SPRY domain (residues V287-I465, UniProt-ID: P19474); made in house; host or cells: E. coli BL21(DE3)
T4 sequence (P19474 287-465): as above
Procedure: as §2, §3

[4] = single dose 500 µM fragment, relative response, suramin reference threshold 100 relative RU

Structure (SMILES)	Tm-shift mTRIM21 ([1]; 2 mM compound, 8 μM protein) [°C]	Tm-Shift hTRIM21 ([2]; 2 mM compound, 8 μM protein) [°C]	SPR mTRIM21 (Response) (His-mTRIM21 PRYSPRY; [4])	SPR hTRIM21 (Response) [3, 4]	Tm-shift mTRIM21 [1] [°C]	Tm-Shift hTRIM21 [2] [°C]	SPR mTRIM21 (Response) (His-mTRIM21 PRYSPRY)	SPR hTRIM21 (Response) [3]
CC(NS(C)(=O)=O)c1ccccc1Cl (centres unmarked) [Fragment Z133729708]	-0.8	-0.7	60.52	74.68				
CNC(=O)c1ccc(S(N)(=O)=O)cc1 [Fragment Z165170770]	-0.4	0	49.37	49.74				
NC(=O)N1CCN(C(=O)c2ccco2)CC1 [Fragment Z198194396]	-0.2	-0.2	38.54	34.19				
CC(NC(=O)C1CC1)c1cccnc1 (centres unmarked) [Fragment Z220996120]	-0.1	0	171.5	149.8				
Nc1ccc(S(=O)(=O)Nc2ccccn2)cc1 [Fragment Z271004858]	-0.1	-0.1	106.3	79.01				
Cc1cc(N2CCNCC2)nc(C)n1 [Fragment Z274575916]	0	0.2	164.1	76.44				
O=C(NC1CC1)c1cnn2cccnc12 [Fragment Z285642082]					-0.3	-0.2	44.74	43.71
NC(=S)Nc1ccccc1OC(F)(F)F [Fragment Z291279160]					-0.4	-0.2	37.66	45.42
Cc1nccn1Cc1cccc(C#N)c1 [Fragment Z319545618]					-0.3	0	30.53	11.39
CC(C)N(C)c1ncnc2c1cnn2C [Fragment Z328695024]	-0.6	-0.6	47.77	48.11				
CN(CC(=O)N1CCCCC1)S(C)(=O)=O [Fragment Z363071686]					-0.1	-0.2	39.85	20.46
Cc1c(C(C)NS(C)(=O)=O)cnn1C (centres unmarked) [Fragment Z369263636]	-0.1	0.1	35.15	36.54				
CCn1cc(NC(=O)C2CCC2)cn1 [Fragment Z373768900]					-0.4	-0.3	20.02	21.88
CC(=O)NCc1ccnc(N(C)C)c1 [Fragment Z374427992]	-0.1	-0.1	50.3	46.45				
CCC(=O)N1CCCC(NS(C)(=O)=O)C1 (centres unmarked) [Fragment Z405825414]	-0.2	0	27.91	27.61				
CCOc1ccccc1N1CCNCC1.Cl [Fragment Z425387594]					-0.1	0	98.47	61.98
CC(=O)N1CCCC(CNS(C)(=O)=O)C1 (centres unmarked) [Fragment Z438096750]	0	-0.2	42.61	40.93				
O=C(c1csnn1)N1CCOCC1 [Fragment Z741055844]	-0.2	-0.1	32.54	28.98				
OCc1cn(-c2ccc(Cl)cc2)nn1 [Fragment Z1374778753]							169.5	114.8
